Columns and labels:
[1] = tested on: tobacco mosaic virus (TMV); assay: Anti-TMV in vitro effect (half-leaf soaking); type: cell-based, tobacco mosaic virus (host Nicotiana tabacum L.cv.Xanthi NN); details: Tobacco mosaic virus, read-out: Relative inhibition rate (%) In vitro activity; for inhibition at 100 µg/mL: treatment dose 100 μg/mL; for inhibition at 500 µg/mL: treatment dose 500 μg/mL
[2] = tested on: tobacco mosaic virus (TMV); assay: Anti-TMV in vivo inactivation; design: species or system tobacco mosaic virus (host Nicotiana tabacum L.cv.Xanthi NN); details: Tobacco mosaic virus, read-out: Relative inhibition rate (%) In vivo inactivation; for inhibition at 100 µg/mL: treatment dose 100 μg/mL; for inhibition at 500 µg/mL: treatment dose 500 μg/mL
[3] = tested on: tobacco mosaic virus (TMV); assay: Anti-TMV in vivo therapeutic effect; design: species or system tobacco mosaic virus (host Nicotiana tabacum L.cv.Xanthi NN); details: Tobacco mosaic virus, read-out: Relative inhibition rate (%) In vivo therapy; for inhibition at 100 µg/mL: treatment dose 100 μg/mL; for inhibition at 500 µg/mL: treatment dose 500 μg/mL
[4] = tested on: tobacco mosaic virus (TMV); assay: Anti-TMV in vivo protective effect; design: species or system tobacco mosaic virus (host Nicotiana tabacum L.cv.Xanthi NN); details: Tobacco mosaic virus, read-out: Relative inhibition rate (%) In vivo protection; for inhibition at 100 µg/mL: treatment dose 100 μg/mL; for inhibition at 500 µg/mL: treatment dose 500 μg/mL
cucumber fusarium wilt = assay: Fungicidal (bactericidal) activity in vitro, PDA colony diameter; type: cell-based; details: Fusarium, 96 h; 50 mg/kg
Cercospora arachidicola = assay: as above; type: cell-based; details: Mycosphaerella arachidis, 96 h; 50 mg/kg
Macrophoma kawatsukai = assay: as above; type: cell-based; details: 50 mg/kg
Alternaria solani = assay: as above; type: cell-based; details: Alternaria solani, 96 h; 50 mg/kg
Fusarium graminearumt = assay: microbe, parasite or virus in culture; type: cell-based; details: Fusarium, 96 h, read-out: Bactericidal activity (%) Fusarium graminearumt
potato late blight = assay: microbe, parasite or virus in culture; type: cell-based; details: Phytophthora infestans, 96 h, read-out: Bactericidal activity (%) potato late blight
Sclerotinia scleotiorum = assay: Fungicidal (bactericidal) activity in vitro, PDA colony diameter; type: cell-based; details: Sclerotinia, 96 h; 50 mg/kg
Botrytis cinerea = assay: as above; type: cell-based; details: Botrytis cinerea, 96 h; 50 mg/kg
Rhizoctonia solani = assay: as above; type: cell-based; details: Rhizoctonia solani, 96 h; 50 mg/kg
Phytophthora capsici = assay: as above; type: cell-based; details: Phytophthora capsici, 96 h; 50 mg/kg
Fusarium fujikuroi = assay: as above; type: cell-based; details: Fusarium fujikuroi, 96 h; 50 mg/kg
Rhizoctonia cereali = assay: as above; type: cell-based; details: Rhizoctonia, 96 h; 50 mg/kg
Bipolaria maydis = assay: organism not typed; type: cell-based; details: read-out: Bactericidal activity (%) Bipolaria maydis
[5] = tested on: Colletotrichum orbiculare; assay: Fungicidal (bactericidal) activity in vitro, PDA colony diameter; type: cell-based; details: Colletotrichum orbiculare, 96 h; 50 mg/kg
armyworms = type: in vivo; details: concentration 600 mg/kg
cotton bollworms = assay: whole plant or invertebrate; details: Helicoverpa armigera, in Gossypium hirsutum, read-out: Cotton bollworm Mortality (%)
Description: Experimental method of cotton bollworms: feed and drug mixing method: measure 3 mL of prepared solution and add it to about 27 g of newly prepared feed, thereby obtaining needed concentration through dilution by 10 times.

mosquito larvae = assay: whole plant or invertebrate; details: Culex pipiens, 24 h, read-out: Mosquito larvae Mortality (%)
How it was run: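 Early fourth-instar Culex pipiens pallens larvae from an indoor colony, 10 per beaker, exposed to test compound at 5 ppm in water, diluted from a 1000 ppm acetone mother solution. Blank: water containing 0.5 mL test solvent.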

corn borers = assay: whole plant or invertebrate; details: read-out: Corn borer Mortality (%)

| Compound | inhibition at 100 µg/mL [1] [%] | inhibition at 500 µg/mL [1] [%] | inhibition at 100 µg/mL [2] [%] | inhibition at 500 µg/mL [2] [%] | inhibition at 100 µg/mL [3] [%] | inhibition at 500 µg/mL [3] [%] | inhibition at 100 µg/mL [4] [%] | inhibition at 500 µg/mL [4] [%] | inhibition of growth at 50 mg/kg (cucumber fusarium wilt) [%] | inhibition of growth at 50 mg/kg (Cercospora arachidicola) [%] | inhibition at 50 mg/kg (Macrophoma kawatsukai) [%] | inhibition of growth at 50 mg/kg (Alternaria solani) [%] | inhibition of growth at 50 mg/kg (Fusarium graminearumt) [%] | inhibition of growth at 50 mg/kg (potato late blight) [%] | inhibition of growth at 50 mg/kg (Sclerotinia scleotiorum) [%] | inhibition of growth at 50 mg/kg (Botrytis cinerea) [%] | inhibition of growth at 50 mg/kg (Rhizoctonia solani) [%] | inhibition of growth at 50 mg/kg (Phytophthora capsici) [%] | inhibition of growth at 50 mg/kg (Fusarium fujikuroi) [%] | inhibition of growth at 50 mg/kg (Rhizoctonia cereali) [%] | also measured |
| --- | --- | --- | --- | --- | --- | --- | --- | --- | --- | --- | --- | --- | --- | --- | --- | --- | --- | --- | --- | --- | --- |
| Cc1nc(C(=O)O)cc2c1[nH]c1ccccc12 [Ia-11, 1-methyl-pyridino [3,4-b] indol-3-formic acid] | 0 | 32.5 | 0 | 27.3 | 0 | 29.6 | 0 | 21.4 | 19.1 | 50 | 82.4 | 33.3 | 35.7 | 25 | 72 | 63.6 | 42.9 | 60.6 | 35.7 | 53.1 | inhibition at 50 mg/kg (Bipolaria maydis): 21.1%; inhibition of growth at 50 mg/kg [5]: 38.1%; Armyworm Mortality (%) (armyworms): 10%; mortality at 600 mg/kg (cotton bollworms): 10%; mortality at 10 mg/kg (mosquito larvae): 50%; mortality at 600 mg/kg (corn borers): 10% |
| C[C@@H]1N[C@H](C(=O)O)Cc2c1[nH]c1ccccc21 [Ib-1, (1S, 3S)-1-methyl-2,3,4,9-tetrahydropyridino [3,4-b] indol-3-formic acid] | 18.9 | 41.6 | 13.5 | 35.5 | 15.8 | 40.4 | 20 | 41.3 | 19.2 | 30.8 | 23.8 | 21.1 | 26.2 | 27.3 | 7.8 | 21.2 | 26.3 | 18.8 | 21.4 | 42.1 | inhibition at 50 mg/kg (Bipolaria maydis): 22.7%; inhibition of growth at 50 mg/kg [5]: 35.7%; Armyworm Mortality (%) (armyworms): 25%; mortality at 600 mg/kg (cotton bollworms): 25%; mortality at 10 mg/kg (mosquito larvae): 55%; mortality at 600 mg/kg (corn borers): 25% |
| C[C@H]1N[C@@H](C(=O)O)Cc2c1[nH]c1ccccc21 [Ib-2, (1R,3R)-1-methyl-2,3,4,9-tetrahydropyridino [3,4-b] indol-3-formic acid] | 0 | 25 | 0 | 28.6 | 0 | 31.5 | 0 | 29.7 | 23.1 | 61.5 | 23.8 | 0 | 21.4 | 4.6 | 23.5 | 18.2 | 29 | 15.6 | 0 | 31.6 | inhibition at 50 mg/kg (Bipolaria maydis): 9.1%; inhibition of growth at 50 mg/kg [5]: 25%; Armyworm Mortality (%) (armyworms): 10%; mortality at 600 mg/kg (cotton bollworms): 25%; mortality at 10 mg/kg (mosquito larvae): 30%; mortality at 600 mg/kg (corn borers): 10% |
| O=C(O)[C@@H]1Cc2c([nH]c3ccccc23)[C@H](c2ccccc2)N1 [Ib-5, (1S, 3S)-1-phenyl-2,3,4,9-tetrahydropyridino [3,4-b] indol-3-formic acid] | 0 | 19.7 | 0 | 27.6 | 0 | 24.3 | 0 | 32.3 | 19.2 | 69.2 | 11.9 | 15.8 | 26.2 | 22.7 | 9.8 | 21.2 | 36.8 | 12.5 | 42.9 | 44.7 | inhibition at 50 mg/kg (Bipolaria maydis): 22.7%; inhibition of growth at 50 mg/kg [5]: 35.7%; Armyworm Mortality (%) (armyworms): 50%; mortality at 600 mg/kg (cotton bollworms): 30%; mortality at 5 mg/kg (mosquito larvae): 30%; mortality at 10 mg/kg (mosquito larvae): 100%; mortality at 600 mg/kg (corn borers): 35% |
| C[C@@H]1N[C@H](C(=O)NC2CCCCC2)Cc2c1[nH]c1ccccc21 [Ib-17, (1S, 3S)—N-cyclohexyl-1-methyl-2,3,4,9-tetrahydro-pyridino [3,4-b] indol-3-formamide] | 0 | 38.8 | 12.3 | 43.3 | 15.1 | 44.6 | 14.2 | 37.1 | 34.6 | 69.2 | 47.6 | 52.6 | 59.5 | 31.8 | 33.3 | 27.3 | 50 | 37.5 | 28.6 | 71.1 | inhibition at 50 mg/kg (Bipolaria maydis): 45.5%; inhibition of growth at 50 mg/kg [5]: 50%; Armyworm Mortality (%) (armyworms): 45%; mortality at 600 mg/kg (cotton bollworms): 30%; mortality at 5 mg/kg (mosquito larvae): 10%; mortality at 10 mg/kg (mosquito larvae): 100%; mortality at 600 mg/kg (corn borers): 40% |

Reference: US10208033B2, “β-carboline, dihydro-β-carboline and tetrahydro-β-carboline alkaloid derivatives and preparation methods same and use in aspects of preventing and treating plant viruses, fungicides and insecticides” (NANKAI UNIVERSITY, priority 2013, dated 2019)
